Measurements published in patent US20250353839A1, “POLYMORPH OF BENZO[C]CHROMAN COMPOUND, PREPARATION METHOD THEREFOR AND USE THEREOF” (Reistone Biopharma Company Limited, priority 2022, published 2025).

Assays:
[1] = Dynamic vapor sorption (DVS) hygroscopicity, with XRPD before and after; format: physicochemical; conditions: for weight gain by hygroscopicity: DVS; for crystal form before and after DVS detection (XRPD): XRPD redetermined after DVS
Protocol: (§1) Test conditions for the instruments used in experiments of the present disclosure: • 1. X-ray Powder Diffraction, XRPD • Instrument type: Malver Panalytical Aeris X-ray powder diffractometer • Ray: monochromatic Cu-Kα ray (λ=1.54188) • Scanning mode: θ/2θ, Scanning range (2θ range): 3.5-50° • Voltage: 40 kV, Electric current: 15 mA • 2. Differential Scanning calorimetry, DSC • Instrument type: TA DSC250 • Purge gas: Nitrogen; Nitrogen purge rate: 50 mL/min • Heating rate: 10° C./min • Temperature range: 25° C.-300° C. • 3. Thermogravimetric Analysis, TGA • Instrument type: TA TGA550 • Purge gas: Nitrogen; Nitrogen purge rate: 20 ml/min • Heating rate: 10° C./min • Temperature range: 30° C.-350° C. 4. Dynamic vapor sorption (DVS) • Using SMS Intrinsic PLUS, the detection is performed at 25° C., with humidity change of 50%-0%-90% with a step size of 10%, in which the criteria for judging is that the mass change dM/dT for each gradient is less than 0.002%, TMAX is 360 min, and two cycles are performed. • 5. High performance liquid chromatography (HPLC) described in the stability test of the crystal forms of the present disclosure is determined on Agilent 1260 Infinity II.

[2] = Stability (influence factor) test of free base crystal form E, HPLC and XRPD; format: physicochemical; conditions: for related substances (impurities) by HPLC versus initial: different days
Protocol: as §1
In the content detection method by the high performance liquid chromatography described in the present disclosure, HPLC conditions are as follows: chromatographic column, Agilent Eclipse Plus C18 4.6 mm*150 mm, 3.5 μm; mobile phase, A-10 mmol/L solution of sodium dihydrogen phosphate (pH 8.0), and B-ACN; flow rate, 1.0 ml/min; wavelength, 210 nm.
In the related substances detection method by the high performance liquid chromatography described in Example 8 of the present disclosure, HPLC conditions are as follows: chromatographic column, Agilent Eclipse Plus C18 4.6 mm*150 mm, 3.5 μm; mobile phase, A-10 mmol/L solution of ammonium acetate, and B-ACN; flow rate, 1.0 ml/min; wavelength, 210 nm.
It is determined whether temperature and humidity have an influence on the stability of free base crystal form E of the compound of formula I.
The free base crystal form E was placed in a stabilizing chamber […] and subjected to influence factor tests using a series of temperature and humidity combinations. After being placed for different days under light and various temperature and humidity conditions, the samples were taken out. The related substances (impurities) were detected by high performance liquid chromatography.
The samples taken out on the last day under light and various temperature and humidity conditions were subjected to XRPD detection, showing that the free base crystal form E had no change and had good stability.

[3] = accelerated experimental conditions (80% RH)
[4] = normal storage conditions (25° C., 60% RH)

SMILES | weight gain by hygroscopicity [1, 3] | weight gain by hygroscopicity ([1]; extreme conditions (90% RH)) | weight gain by hygroscopicity [1, 4] | crystal form before and after DVS detection (XRPD) [1] | further results
N#Cc1ccc2c(c1)COc1cc(C[C@@H](C#N)NC(=O)[C@@H]3CNCCCO3)c(F)cc1-2 [crystal form C] | approximately 0.89% | approximately 1.16% | approximately 0.65% | did not change | 
N#Cc1ccc2c(c1)COc1cc(C[C@@H](C#N)NC(=O)[C@@H]3CNCCCO3)c(F)cc1-2 [crystal form A] | approximately 5.39% |  |  | did not change | 
N#Cc1ccc2c(c1)COc1cc(C[C@@H](C#N)NC(=O)[C@@H]3CNCCCO3)c(F)cc1-2 [free base crystal form E] |  |  |  |  | Content (%) of the compound of formula I ([2]; 0 day): 97.45%; Content (%) of the compound of formula I ([2]; 0.5 ICH (light)): 96.07%; Content (%) of the compound of formula I ([2]; 1 ICH (light)): 94.52%; Content (%) of the compound of formula I ([2]; 25° C. RH 92%-1 week): 97.29%; Content (%) of the compound of formula I ([2]; 25° C. RH 92%-2 weeks): 97.5%; Content (%) of the compound of formula I ([2]; 40° C. RH 75%-1 week): 97.36%; Content (%) of the compound of formula I ([2]; 40° C. RH 75%-2 weeks): 97.51%; Content (%) of the compound of formula I ([2]; 60° C.-1 week): 97.25%; Content (%) of the compound of formula I ([2]; 60° C.-2 weeks): 97.55%; related substances (impurities) by HPLC versus initial ([2]; light conditions): impurities increased; crystal form after stability test (XRPD) ([2]; samples of the last day under light and various temperature and humidity conditions): had no change; related substances (impurities) by HPLC versus initial ([2]; various temperature and humidity conditions): no significant increase or only a slight increase
N#Cc1ccc2c(c1)COc1cc(C[C@@H](C#N)NC(=O)[C@@H]3CNCCCO3)c(F)cc1-2 [crystal form B] | approximately 1.60% | approximately 3.87% | approximately 0.93% | did not change | 
N#Cc1ccc2c(c1)COc1cc(C[C@@H](C#N)NC(=O)[C@@H]3CNCCCO3)c(F)cc1-2 [crystal form D] | approximately 0.76% | approximately 0.84% | approximately 0.64% | did not change | 
